The values below come from patent US20240174637A1, “DEGRADERS OF GRK2 AND USES THEREOF” (Sonata Therapeutics, Inc., priority 2021, published 2024).

SMILES strings stand for the structures. Where a name gives a salt, the structure may show the parent alone.

One assay deals with PAXF1657 KO Clone #4. The assay is described as follows: 7-day cellular proliferation assay (CellTiter-Glo), PAXF1657 KO Clone #4. It counts as cell-based. To be noted: proliferation, read-out: GeoMean IC50 (uM) PAXF1657 KO Clone #4. In short, it runs like this: (§1)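 Cells plated at 500 per well and attached overnight. Next, 10-point inhibitor series added (30 μM-0.0002 μM, 0.3% DMSO) and a day-0 viability plate read. Then, after 3 days, medium with fresh compound. Finally, viability after 4 more days via CellTiter-Glo.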

Assay [1] has as its target T1, GRK2 (Homo sapiens, UniProt P25098).
T1 sequence (P25098 1-689): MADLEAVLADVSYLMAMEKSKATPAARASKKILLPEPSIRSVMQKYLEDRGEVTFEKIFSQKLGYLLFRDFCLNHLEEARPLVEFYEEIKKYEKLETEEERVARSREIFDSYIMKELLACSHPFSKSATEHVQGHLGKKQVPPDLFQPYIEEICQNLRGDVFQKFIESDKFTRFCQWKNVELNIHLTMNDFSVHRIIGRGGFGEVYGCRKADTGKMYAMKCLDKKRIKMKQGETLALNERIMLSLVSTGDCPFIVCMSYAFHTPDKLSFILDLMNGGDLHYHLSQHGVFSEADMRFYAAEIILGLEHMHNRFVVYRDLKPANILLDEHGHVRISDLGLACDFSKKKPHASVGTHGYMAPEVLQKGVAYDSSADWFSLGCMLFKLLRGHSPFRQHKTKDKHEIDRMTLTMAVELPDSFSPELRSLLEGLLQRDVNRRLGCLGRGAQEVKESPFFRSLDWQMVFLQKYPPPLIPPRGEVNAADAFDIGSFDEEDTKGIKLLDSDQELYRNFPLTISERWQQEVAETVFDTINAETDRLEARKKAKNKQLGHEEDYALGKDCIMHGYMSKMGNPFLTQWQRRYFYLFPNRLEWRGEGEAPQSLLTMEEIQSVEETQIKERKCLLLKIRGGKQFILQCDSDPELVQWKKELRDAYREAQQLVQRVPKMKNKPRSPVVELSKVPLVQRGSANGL
Nature of the assay: GRK2 Degradation Assay and Western Blot in PAXF1657 cells. The class given is cell-based. Also on record: endogenous in cells; host or cells: PAXF1657. To be noted: for inhibition at 0.3 µM: Conc 0.3 uM; for inhibition at 0.3 µM / inhibition at 1 µM / inhibition at 3 µM: read-out: Degradation Assay - 3 point: Degradation (%); for inhibition at 1 µM: Conc 1 uM; for inhibition at 3 µM: Conc 3 uM. In short, it runs like this: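 GRK2 degradation judged by immunoblot: NP40 lysates separated by SDS-PAGE and probed for GRK2 and β-actin, with HRP/ECL detection. Lysates came from PAXF1657 cells exposed to 0–10 μM compound for 6–24 h after reaching 70% confluency.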

Assay [2] deals with T1, GRK2. The assay is described as follows: GRK2 Inhibition Assay (TR-FRET, Example 1). To be noted: Table 4; Example 1 assay; read-out: Enzymatic GRK2 IC50: Av IC50 GRK2. The class given is biochemical. In short, it runs like this: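 TR-FRET phosphorylation readout: Eu anti-TopoIIα antibody with EDTA added after a 90 min RT kinase reaction of 1 nM GRK2, 7 μM ATP and 50 nM ULight-TopoIIα. Compounds were pre-incubated with enzyme 30 min at room temperature beforehand.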
(In general: TR-FRET usually uses a lanthanide donor and a delayed reading to cut background.)

A further assay deals with PAXF1657 EV. Nature of the assay: 7-day cellular proliferation assay (CellTiter-Glo), PAXF1657 EV. The class given is cell-based. To be noted: proliferation, read-out: GeoMean IC50 (UM) PAXF1657 EV. In short, it runs like this:
as §1

On to `C[C@@H](NC(=O)c1cccc(NCc2nnc(-c3ccncn3)n2C)c1)c1cccc(C(=O)N2CC(CN3CCN(c4ccc5c(c4)CN(C4CCC(=O)NC4=O)C5=O)CC3)C2)c1` (stereo partly drawn) [Compound D121, N-((1R)-1-(3-(3-((4-(2-(2,6-dioxopiperidin-3-yl)-1-oxoisoindolin-5-yl)piperazin-1-yl)methyl)azetidine-1-carbonyl)phenyl)ethyl)-3-((4-methyl-5-(pyrimidin-4-yl)-4H-1,2,4-triazol-3-yl)methylamino)benzamide hydrochloride], for which the IC50 with PAXF1657 KO Clone #4 was more than 30 µM. In addition, on GRK2 [1], the inhibition at 0.3 µM came out at 7.97%, the inhibition at 1 µM is 24% and the inhibition at 3 µM was 53.8%. For the same compound, the IC50 on GRK2 [2] amounted to 0.0447 µM. For the same compound, the IC50 with PAXF1657 EV was determined as 11.4 µM.
As for `C[C@@H](NC(=O)c1cccc(NCc2nnc(-c3ccncn3)n2C)c1)c1ccc(OCCCCN2CCN(c3ccc4c(c3)CN(C3CCC(=O)NC3=O)C4=O)CC2)cc1` (stereo partly drawn) [Compound D175, N-((1R)-1-(4-(4-(4-(2-(2,6-dioxopiperidin-3-yl)-1-oxoisoindolin-5-yl)piperazin-1-yl)butoxy)phenyl)ethyl)-3-((4-methyl-5-(pyrimidin-4-yl)-4H-1,2,4-triazol-3-yl)methylamino)benzamide hydrochloride], in the assay with PAXF1657 KO Clone #4, the IC50 is more than 30 µM. For the same compound, on GRK2 [1], the inhibition at 0.3 µM is 87.7%, the inhibition at 1 µM was determined as 89.2% and the inhibition at 3 µM came to 82.8%. The IC50 on GRK2 [2] came to 0.0103 µM. Also, the half-inhibitory concentration (IC50) in the assay with PAXF1657 EV is less than 0.000458 µM.
Consider `Cc1ncsc1-c1ccc(CNC(=O)[C@@H]2C[C@@H](O)CN2C(=O)[C@@H](NC(=O)CCCOCCOCCOCCCCCCOc2ccc([C@@H](C)NC(=O)c3cccc(NCc4nnc(-c5ccncn5)n4C)c3)cc2)C(C)(C)C)cc1` [Compound D116], for which, in the assay with PAXF1657 KO Clone #4, the IC50 was 7.48 µM. Besides, on GRK2 [1], the inhibition at 0.3 µM was found to be 15%, the inhibition at 1 µM came out at 30% and the inhibition at 3 µM is -40%. The IC50 at GRK2 [2] came to 0.0066 µM. For the same compound, in the assay with PAXF1657 EV, the IC50 amounted to 1.88 µM.
Turning to `C[C@@H](NC(=O)c1cccc(NCc2nnc(-c3ccncn3)n2C)c1)c1cccc(OCCCCCOCCCOCCOc2ccc3c(c2)CN(C2CCC(=O)NC2=O)C3=O)c1` (stereo partly drawn) [Compound D160, N-((1R)-1-(3-((5-(3-(2-((2-(2,6-dioxopiperidin-3-yl)-1-oxoisoindolin-5-yl)oxy)ethoxy)propoxy)pentyl)oxy)phenyl)ethyl)-3-(((4-methyl-5-(pyrimidin-4-yl)-4H-1,2,4-triazol-3-yl)methyl)amino)benzamide], the IC50 in the assay on PAXF1657 KO Clone #4 is more than 30 µM. Further, on GRK2 [1], the inhibition at 0.3 µM came out at 92%, the inhibition at 1 µM is 87% and the inhibition at 3 µM worked out at 83%. The IC50 at GRK2 [2] stood at 0.025 µM. Also, the IC50 in the assay with PAXF1657 EV came to 0.05 µM.
For `C[C@@H](NC(=O)c1cccc(NCc2nnc(-c3ccncn3)n2C)c1)c1cccc(OCCCCCCOCCOCCOCCCC(=O)N2CCN(c3cc4c(cc3F)C(=O)N(C3CCC(=O)NC3=O)C4=O)CC2)c1` (stereo partly drawn) [Compound D178, N-((1R)-1-(3-((6-(2-(2-(4-(4-(2-(2,6-dioxopiperidin-3-yl)-6-fluoro-1,3-dioxoisoindolin-5-yl)piperazin-1-yl)-4-oxobutoxy)ethoxy)ethoxy)hexyl)oxy)phenyl)ethyl)-3-(((4-methyl-5-(pyrimidin-4-yl)-4H-1,2,4-triazol-3-yl)methyl)amino)benzamide], the IC50 in the assay with PAXF1657 KO Clone #4 was more than 30 µM; at GRK2 [2], 0.0116 µM; in the assay with PAXF1657 EV, 0.31 µM. Moreover, the inhibition at 0.3 µM at GRK2 [1] is 45%. For the same compound, the inhibition at 1 µM on GRK2 [1] was determined as 72%. In addition, on GRK2 [1], the inhibition at 3 µM stood at 84%.
With `C[C@@H](NC(=O)c1cccc(NCc2nnc(-c3ccncn3)n2C)c1)c1cccc(OCC(=O)N2CCN(c3ccc4c(c3)CN(C3CCC(=O)NC3=O)C4=O)CC2)c1` (stereo partly drawn) [Compound D176, N-((1R)-1-(3-(2-(4-(2-(2,6-dioxopiperidin-3-yl)-1-oxoisoindolin-5-yl)piperazin-1-yl)-2-oxoethoxy)phenyl)ethyl)-3-((4-methyl-5-(pyrimidin-4-yl)-4H-1,2,4-triazol-3-yl)methylamino)benzamide], the IC50 with PAXF1657 KO Clone #4 was more than 30 µM; at GRK2 [2], 0.0241 µM; in the assay with PAXF1657 EV, 8.02 µM. Further, on GRK2 [1], the inhibition at 0.3 µM is 33%. Further, on GRK2 [1], the inhibition at 1 µM stood at 24.4%. Moreover, the inhibition at 3 µM on GRK2 [1] was determined as 10.7%.
For `C[C@@H](NC(=O)c1cccc(NCc2nnc(-c3ccncn3)n2C)c1)c1ccc(OCCCN2CCN(c3ccc4c(c3)CN(C3CCC(=O)NC3=O)C4=O)CC2)cc1` (stereo partly shown) [Compound D173], the IC50 in the assay with PAXF1657 KO Clone #4 came out at 0.26 µM; at GRK2 [2] it was 0.0186 µM; with PAXF1657 EV it was 0.03 µM. In addition, the inhibition at 0.3 µM at GRK2 [1] was 52.5%. Further, the inhibition at 1 µM at GRK2 [1] came out at 48.5%. In addition, the inhibition at 3 µM on GRK2 [1] was 14.7%.
Consider `C[C@@H](NC(=O)c1cccc(NCc2nnc(-c3ccncn3)n2C)c1)c1cccc(OCCCCCCOCC(=O)N2CCN(c3ccc4c(c3)CN(C3CCC(=O)NC3=O)C4=O)CC2)c1` (stereo partly drawn) [Compound D132, N-((1R)-1-(3-(6-(2-(4-(2-(2,6-dioxopiperidin-3-yl)-1-oxoisoindolin-5-yl)piperazin-1-yl)-2-oxoethoxy)hexyloxy)phenyl)ethyl)-3-((4-methyl-5-(pyrimidin-4-yl)-4H-1,2,4-triazol-3-yl)methylamino)benzamide], for which the IC50 in the assay on PAXF1657 KO Clone #4 was more than 30 µM. Also, at GRK2 [1], the inhibition at 0.3 µM is 87.4%, the inhibition at 1 µM amounted to 92.4% and the inhibition at 3 µM came to 91.5%. Also, on GRK2 [1] (PAXF1657, 24 h, read-out: Degradation Assay - Full Dose Response: IC50 (uM) [cell line: PAXF1657, time point: 24 h]), the DC50 is 0.12 µM. Further, on GRK2 [2], the IC50 came to 0.0163 µM. The IC50 in the assay on PAXF1657 EV was 0.04 µM.
`C[C@@H](NC(=O)c1cccc(NCc2nnc(-c3ccncn3)n2C)c1)c1cccc(OCCCCCCOCCOCCOCCCC(=O)N2CCN(c3ccc4c(c3)CN(C3CCC(=O)NC3=O)C4=O)CC2)c1` (stereo partly drawn) [Compound D179, N-((1R)-1-(3-((6-(2-(2-(4-(4-(2-(2,6-dioxopiperidin-3-yl)-1-oxoisoindolin-5-yl)piperazin-1-yl)-4-oxobutoxy)ethoxy)ethoxy)hexyl)oxy)phenyl)ethyl)-3-(((4-methyl-5-(pyrimidin-4-yl)-4H-1,2,4-triazol-3-yl)methyl)amino)benzamide]: the IC50 in the assay on PAXF1657 KO Clone #4 is more than 30 µM. Besides, on GRK2 [1], the inhibition at 0.3 µM stood at 58%, the inhibition at 1 µM turned out to be 82% and the inhibition at 3 µM turned out to be 88%. The IC50 on GRK2 [2] is 0.00636 µM. In the assay with PAXF1657 EV, the IC50 is 0.14 µM.
`C[C@H](NC(=O)c1cccc(NCc2nnc(-c3ccncn3)n2C)c1)c1ccc(OCCCCCCOCCOCCOCCCCCC(=O)Nc2cccc3c2CN(C2CCC(=O)NC2=O)C3=O)cc1` (stereo partly drawn) [Compound D152, N-((1S)-1-(4-(6-(2-(2-(6-(2-(2,6-dioxopiperidin-3-yl)-1-oxoisoindolin-4-ylamino)-6-oxohexyloxy)ethoxy)ethoxy)hexyloxy)phenyl)ethyl)-3-((4-methyl-5-(pyrimidin-4-yl)-4H-1,2,4-triazol-3-yl)methylamino)benzamide]: in the assay with PAXF1657 KO Clone #4, the IC50 is more than 30 µM. Further, on GRK2 [1], the inhibition at 0.3 µM stood at 24%, the inhibition at 1 µM came out at 28% and the inhibition at 3 µM stood at 38%. For the same compound, at GRK2 [2], the IC50 was more than 1 µM. In addition, the IC50 in the assay with PAXF1657 EV came out at 12.7 µM.

For orientation: IC50 means the midpoint of a concentration-inhibition curve.
